Reference: ChEMBL document CHEMBL1201862, “PubChem BioAssay data set” (2004)
The source made the active and inactive calls.

Columns and labels:
[1] = microbe, parasite or virus in culture; format: functional; conditions: Mycobacterium tuberculosis
[2] = biological target: T1, Protein skinhead-1 (Caenorhabditis elegans, UniProt P34707); format: functional
T1 sequence (P34707 whole entry): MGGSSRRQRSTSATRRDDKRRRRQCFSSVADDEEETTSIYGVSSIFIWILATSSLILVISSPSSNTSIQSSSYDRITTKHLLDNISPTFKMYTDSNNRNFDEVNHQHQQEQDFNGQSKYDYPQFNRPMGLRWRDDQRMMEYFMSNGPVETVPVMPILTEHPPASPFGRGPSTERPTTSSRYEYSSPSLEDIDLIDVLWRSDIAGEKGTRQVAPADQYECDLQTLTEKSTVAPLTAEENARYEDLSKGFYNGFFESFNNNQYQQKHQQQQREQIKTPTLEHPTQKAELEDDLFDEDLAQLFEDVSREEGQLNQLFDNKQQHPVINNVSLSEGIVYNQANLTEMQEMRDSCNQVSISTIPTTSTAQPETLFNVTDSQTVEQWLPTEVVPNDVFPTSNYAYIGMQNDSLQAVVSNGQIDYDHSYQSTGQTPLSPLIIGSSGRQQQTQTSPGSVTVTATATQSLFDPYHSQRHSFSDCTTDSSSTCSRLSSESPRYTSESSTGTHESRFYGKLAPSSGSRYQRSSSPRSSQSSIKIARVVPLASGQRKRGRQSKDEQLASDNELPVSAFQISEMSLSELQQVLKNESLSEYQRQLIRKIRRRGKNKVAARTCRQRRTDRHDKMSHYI

[3] = cells; format: functional, cell-based
[4] = cells; format: functional, cell-based; remark: listed apart in the source
[5] = growth suppression of PTEN-null colon cells, dose response, cell-based, HCT116 PTEN knockout (AID 1047); format: functional;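 note: HCT116 colon tumor cells with PTEN knocked out; cells exposed to compound for 60 hours before readout; potency for loss of cell viability measured by luminescence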
[6] = growth suppression of beta-catenin-knockout colon cells, dose response, cell-based, HCT116, human colon tumor (AID 1045); format: functional;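 note: HCT116 colon tumor cells with beta catenin knocked out; cells exposed to compound for 60 hours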
[7] = inhibitors of firefly luciferase expression or activity, dose response, H4 neuroglioma cells, luminescence (AID 1990); format: functional, cell-based
[8] = Luminescence Cell-Based Dose Response HTS to Identify Inhibitors of 5'UTR Stem-Loop Driven Prion Protein mRNA Translation in H4 Neuroglioblastoma Cells. [Related pubchem assays: 1827 (Project Summary), 1813 (Primary HTS)]; format: functional
[9] = inhibitors of SNCA 5'UTR-driven reporter translation, confirmation, H4 neuroglioma cells, luminescence (AID 1988); format: functional, cell-based
[10] = ZM109 Env clade C HIV-1 fusion inhibitors, dose response, HeLa effector, CEM target cells, luciferase, cherry-pick (AID 652058); format: functional, cell-based
[11] = Luminescence Cell-Based Dose Retest to Confirm Inhibitors of Cancer Stem Cells. [Related pubchem assays (depositor defined):AID2717, AID2721]; format: functional; conditions: Homo sapiens
[12] = tested on: H9c2; test: cells; format: functional, cell-based; conditions: Rattus norvegicus, H9c2, Myocardium;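 note: confirmatory concentration-response retest of ultra-high-throughput screening hits for modulation of myocardial damage; cell death induced by hydrogen peroxide oxidative stress; compound pretreatment for 60 min then peroxide exposure for 2 h; potency is for protecting the cells against peroxide damage rather than for killing them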
[13] = biological target: Large T antigen (Simian virus 40, UniProt P03070); format: functional, Betapolyomavirus macacae;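 note: Confirmatory-stage PubChem screen for compounds that inhibit SV40 T antigen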
Sequence of Large T antigen (P03070 whole entry): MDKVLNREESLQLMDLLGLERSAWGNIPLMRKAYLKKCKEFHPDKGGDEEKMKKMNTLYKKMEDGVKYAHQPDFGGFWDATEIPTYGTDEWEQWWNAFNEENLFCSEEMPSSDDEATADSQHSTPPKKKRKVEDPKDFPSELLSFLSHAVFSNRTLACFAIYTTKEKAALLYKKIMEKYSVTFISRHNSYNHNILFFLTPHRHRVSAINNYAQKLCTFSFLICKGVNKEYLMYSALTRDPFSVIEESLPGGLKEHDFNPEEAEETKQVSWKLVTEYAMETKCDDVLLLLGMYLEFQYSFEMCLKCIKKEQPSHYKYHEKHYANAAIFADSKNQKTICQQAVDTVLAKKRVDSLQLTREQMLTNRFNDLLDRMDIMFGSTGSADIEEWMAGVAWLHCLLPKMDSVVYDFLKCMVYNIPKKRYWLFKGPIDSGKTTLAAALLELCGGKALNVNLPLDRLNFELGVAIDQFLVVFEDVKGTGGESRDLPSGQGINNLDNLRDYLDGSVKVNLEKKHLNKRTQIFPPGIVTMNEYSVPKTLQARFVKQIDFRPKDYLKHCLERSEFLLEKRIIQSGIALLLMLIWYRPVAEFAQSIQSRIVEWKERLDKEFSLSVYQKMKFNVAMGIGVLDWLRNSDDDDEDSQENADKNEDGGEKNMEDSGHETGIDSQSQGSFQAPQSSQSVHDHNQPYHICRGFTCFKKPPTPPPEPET

[14] = biological target: Cytochrome P450 2C19 (Homo sapiens, UniProt P33261); test: Cytochrome panel assay with activity outcomes. Panel member name: p450-cyp2c19 Compounds with AC50 equal or less than 10 uM are considered active; format: functional; conditions: read-out: AC50
Sequence of Cytochrome P450 2C19 (P33261 whole entry): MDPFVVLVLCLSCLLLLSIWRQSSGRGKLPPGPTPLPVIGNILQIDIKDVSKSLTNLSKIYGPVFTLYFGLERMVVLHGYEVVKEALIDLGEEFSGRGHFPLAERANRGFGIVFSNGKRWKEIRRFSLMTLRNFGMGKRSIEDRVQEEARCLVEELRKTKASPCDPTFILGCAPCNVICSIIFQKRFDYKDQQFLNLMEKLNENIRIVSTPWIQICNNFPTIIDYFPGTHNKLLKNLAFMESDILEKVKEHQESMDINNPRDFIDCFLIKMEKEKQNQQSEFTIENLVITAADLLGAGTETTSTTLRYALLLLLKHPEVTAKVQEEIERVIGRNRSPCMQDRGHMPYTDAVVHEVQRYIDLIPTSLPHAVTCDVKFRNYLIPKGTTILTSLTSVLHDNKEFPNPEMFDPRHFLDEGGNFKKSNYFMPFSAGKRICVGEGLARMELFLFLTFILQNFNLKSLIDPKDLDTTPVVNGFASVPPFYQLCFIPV

[15] = biological target: T2, Cytochrome P450 1A2 (Homo sapiens, UniProt P05177);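 note: PubChem cytochrome P450 panel assay, CYP1A2 panel member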
T2 sequence (P05177 whole entry): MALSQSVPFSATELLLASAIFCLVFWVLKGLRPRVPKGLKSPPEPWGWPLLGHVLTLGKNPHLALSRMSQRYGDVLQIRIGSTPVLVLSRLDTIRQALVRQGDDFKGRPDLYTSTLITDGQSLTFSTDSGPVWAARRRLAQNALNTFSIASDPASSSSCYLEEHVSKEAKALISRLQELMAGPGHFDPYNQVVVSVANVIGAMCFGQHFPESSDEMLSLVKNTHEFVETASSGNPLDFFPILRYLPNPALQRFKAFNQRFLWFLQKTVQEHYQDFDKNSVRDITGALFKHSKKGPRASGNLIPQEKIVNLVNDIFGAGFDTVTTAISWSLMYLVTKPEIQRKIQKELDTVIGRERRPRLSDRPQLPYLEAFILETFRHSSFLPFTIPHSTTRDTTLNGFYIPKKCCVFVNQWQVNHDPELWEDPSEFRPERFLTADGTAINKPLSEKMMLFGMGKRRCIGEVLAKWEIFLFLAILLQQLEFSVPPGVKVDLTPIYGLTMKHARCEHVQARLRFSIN

[16] = biological target: Cytochrome P450 3A4 (Homo sapiens, UniProt P08684);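 note: CYP3A4 tested as one member of a cytochrome P450 panel screen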
Sequence of Cytochrome P450 3A4 (P08684 whole entry): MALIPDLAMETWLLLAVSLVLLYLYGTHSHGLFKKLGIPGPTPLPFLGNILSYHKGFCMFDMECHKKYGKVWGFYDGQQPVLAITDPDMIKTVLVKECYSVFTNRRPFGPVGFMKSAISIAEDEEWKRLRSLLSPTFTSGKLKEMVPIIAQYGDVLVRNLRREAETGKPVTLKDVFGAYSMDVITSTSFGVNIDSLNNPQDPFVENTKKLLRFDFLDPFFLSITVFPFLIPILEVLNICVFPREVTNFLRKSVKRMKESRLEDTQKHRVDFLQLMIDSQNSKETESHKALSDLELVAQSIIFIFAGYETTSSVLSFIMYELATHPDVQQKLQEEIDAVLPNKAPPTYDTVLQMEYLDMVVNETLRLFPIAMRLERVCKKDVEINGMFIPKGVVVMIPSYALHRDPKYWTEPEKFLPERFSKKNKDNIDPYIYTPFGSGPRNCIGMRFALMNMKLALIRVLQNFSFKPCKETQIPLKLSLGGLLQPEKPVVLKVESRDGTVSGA

## O=C(c1cc(COc2ccc(F)cc2F)on1)N1CCCC(c2ccccc2)C1 (stereo not drawn)
[1]
  CC50: > 40 µM (active)

## CCC(=O)Nc1nc(CC(=O)Nc2ccccc2OC)cs1
[2]
  IC50: > 100 µM (inactive)

## COc1ccc(NS(=O)(=O)c2ccc3c(c2)n(C)c(=O)n3C)cc1
[2]
  IC50: > 100 µM (inactive)

## CCc1ccc2nc(O)c(CN(CCCN3CCOCC3)C(=O)Nc3cccc(Cl)c3)cc2c1
[1]
  CC50: 15 µM (active)

## CC(C)c1nc(CNC(=O)CCc2nnc(-c3ccsc3)o2)cs1
[3]
  EC50: > 350 µM (not active)
[4]
  EC50: > 350 µM (not active)

## CCCCCCn1c(COc2ccccc2F)nnc1SCC(=O)N1c2ccccc2NC(=O)C1(C)C
[5]
  EC50: 23.5 µM (active)
[6]
  EC50: 26.5 µM (active)

## CCCn1cc(NC(=O)c2cc(-c3ccccc3)on2)cn1
[3]
  EC50: 143 µM (active)
[4]
  EC50: 2.49 µM (active)

## C=CCn1c(CC(=O)Nc2cccc(OC)c2)nnc1SCC(=O)NC1CCCCC1
[2]
  IC50: > 100 µM (inactive)

## CCCCCCCCNC(=O)C(CCC(=O)OCc1ccccc1)NC(C)=O (stereo not drawn)
[2]
  IC50: > 100 µM (inactive)

## COc1ccc(NC(=O)Nc2ccc(CC(=O)O)cc2)cc1
[3]
  EC50: > 350 µM (not active)
[4]
  EC50: 139 µM (active)

## S=C(NN=C1CCN(Cc2ccccc2)CC1)NC1CCCCC1
[7]
  EC50: > 120 µM (not active)
[8]
  EC50: > 120 µM (not active)
[9]
  EC50: > 120 µM (not active)
[1]
  CC50: > 40 µM (active)

## Cn1cc(C(=O)c2ccc(Cl)cc2)cc1-c1nc2ccccc2n1C
[1]
  CC50: > 40 µM (active)

## O=C(Nc1ccc(F)cc1)Nc1ccc2c(c1)[C@@H]1C[C@H](CC(=O)N3CCCCC3)O[C@H](CO)[C@@H]1O2
[10]
  AC50: 62.5 µM (active)

## COc1cccc(-c2cc(C(F)(F)F)n3nc(C(=O)N4CCC5(CC4)OCCO5)cc3n2)c1
[3]
  EC50: > 350 µM (not active)
[4]
  EC50: > 350 µM (not active)

## CCOC(=O)C(C)(C)N(Cc1ccc(Cl)cc1)S(=O)(=O)c1ccc(Cl)c([N+](=O)[O-])c1
[5]
  EC50: 14.7 µM (active)
[6]
  EC50: 8.15 µM (active)
[11]
  AC50: 2.07 µM (active)

## CCC(/C=C(\O)c1cccnc1)=N\c1ccc(C)c(C)c1
[1]
  CC50: > 40 µM (active)

## Cc1cc(C)cc(NC(=O)CSc2ccc(-c3ccccn3)nn2)c1
[7]
  EC50: 11.7 µM (active)
[3]
  EC50: > 350 µM (not active)
[8]
  EC50: 9.74 µM (active)
[9]
  EC50: 8.69 µM (active)
[4]
  EC50: > 350 µM (not active)
[11]
  AC50: 4.57 µM (active)
[12]
  IC50: > 79 µM (inactive)

## CCOc1ccc(C(=O)NCC2CCCO2)cc1OCC (stereo not drawn)
[3]
  EC50: > 350 µM (not active)
[4]
  EC50: > 350 µM (not active)

## CCOC(=O)C1=C(COC(=O)c2ccc(Cl)cc2[N+](=O)[O-])NC(=O)NC1C (stereo not drawn)
[2]
  IC50: > 100 µM (inactive)

## Cc1ccc(C)c(-c2cc(C(=O)Nc3cccc(C(=O)O)c3)c3ccccc3n2)c1
[3]
  EC50: > 350 µM (not active)
[4]
  EC50: > 350 µM (not active)

## CCc1[nH]nc2c1/C(=N\O)CC(c1ccccc1)C2 (stereo not drawn)
[5]
  EC50: 61.3 µM (active)
[6]
  EC50: 91.4 µM (active)

## Cc1sc2nc(CN(C(=O)NC3CCCCC3)C3CCCC3)nc(O)c2c1C
[1]
  CC50: > 40 µM (active)

## Cc1cc2c(N=O)c(NO)ccc2[nH]1
[13]
  IC50: 29.3 µM (active)
[1]
  CC50: 5.53 µM (active)

## O=[N+]([O-])c1cccc(/C=N/Nc2nc(C(Cl)(Cl)Cl)nc3ccccc23)c1
[5]
  EC50: 24.4 µM (active)
[6]
  EC50: 25.2 µM (active)

## CC(C)(C)CC(=O)NC(=S)N1CCCCCC1
[14]
  AC50: 39.8 µM (inconclusive)
[2]
  IC50: > 100 µM (inactive)
[15]
  AC50: 15.8 µM (inconclusive)
[16]
  AC50: 12.6 µM (inconclusive)

## O=C(Nc1ccc2c(c1)OCO2)c1cccc(F)c1
[2]
  IC50: > 100 µM (inactive)

## CC(C)NC(=O)CN(C)S(=O)(=O)c1ccc(F)cc1
[2]
  IC50: > 100 µM (inactive)

## COC(=O)CC1C(=O)NCCN1C(=O)CSc1nnc(Nc2ccc(OC)cc2)s1 (stereo not drawn)
[3]
  EC50: > 350 µM (not active)
[4]
  EC50: > 350 µM (not active)
